Reference: ChEMBL document CHEMBL1151342, “Psorospermin, a new antileukemic xanthone from Psorospermum febrifugum” (1980)
≈ marks a conversion by molar mass, not a printed value. Calls of active or inactive are those of the source. No cut-off for these calls is given here.

Tests used:
Assay type in all cases: functional
P388 = experiment: In vivo antitumor activity against mouse P388 cells at 8 mg/kg
KB = experiment: Cytotoxicity against human KB cells; settings: read-out: ED50 (the source's name)
Echinoidea = experiment: Inhibition of mitosis in sea urchin egg at 1 uM

In the case of `COc1cc2c(c3oc4c(O)cccc4c(=O)c13)C[C@H]([C@@]1(C)CO1)O2` [PSOROSPERMIN], the T/C (P388) is reported as 158%, the EC50 (KB) is reported as 0.1 µg/mL (≈ 0.294 µM) and the Activity (Echinoidea) is reported as “Active”.
